Reference: ChEMBL document CHEMBL1201862, “PubChem BioAssay data set” (2004)
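96-well plates; 48 h exposure; 5 concentrations. Endpoints by linear interpolation between flanking doses. Not reached: highest tested concentration assigned. GI50 is the concentration that inhibits growth by half.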 Active and inactive are the calls of the source. Cut-off read from the data, not from the text of the source: active = GI50 up to about 1.1 µM and inactive = higher.

Legend:
Assay in all cases: NCI anticancer screen, dose series, 48 h
UACC-257 = system: UACC-257
U-251 = system: U-251
M14 = system: M14
SK-OV-3 = system: SK-OV-3
Malme-3M = system: Malme-3M
ACHN = system: ACHN
SK-MEL-2 = system: SK-MEL-2
SNB-75 = system: SNB-75
MOLT-4 = system: MOLT-4
OVCAR-3 = system: OVCAR-3
SK-MEL-28 = system: SK-MEL-28
HOP-92 = system: HOP-92
EKVX = system: EKVX
RXF 393 = system: RXF 393
COLO 205 = system: COLO 205
SR = system: SR
SNB-19 = system: SNB-19

SMILES	GI50 (UACC-257)	GI50 (U-251)	GI50 (M14)	GI50 (SK-OV-3)	GI50 (Malme-3M)	GI50 (ACHN)	GI50 (SK-MEL-2)	GI50 (SNB-75)	GI50 (MOLT-4)	GI50 (OVCAR-3)	GI50 (SK-MEL-28)	GI50 (HOP-92)	GI50 (EKVX)	GI50 (RXF 393)	GI50 (COLO 205)	GI50 (SR)	GI50 (SNB-19)
COc1cc2c(c(O)c1C)C(=O)CC(c1ccccc1)O2 (stereo not given)	38.5 µM (inactive)	56.4 µM (inactive)	> 10 µM (inactive)	36.2 µM (inactive)	91.4 µM (inactive)	43.7 µM (inactive)	24.9 µM (inactive)	28.8 µM (inactive)	32.8 µM (inactive)	48.1 µM (inactive)	> 100 µM (inactive)	13.4 µM (inactive)	89.3 µM (inactive)				
O=C1C(C2=[N+]([O-])c3ccccc3C2=O)=[N+]([O-])c2ccccc21		20.4 µM (inactive)	16.6 µM (inactive)	53.2 µM (inactive)		24.8 µM (inactive)		35.1 µM (inactive)	15.3 µM (inactive)	16.3 µM (inactive)	42.9 µM (inactive)		16.6 µM (inactive)	31.9 µM (inactive)	17.7 µM (inactive)	22.5 µM (inactive)	46.7 µM (inactive)
COc1cc([C@@H]2c3cc4c(cc3[C@@H](NC(=O)c3cccc(C#N)c3)C3COC(=O)[C@@H]32)OCO4)cc(OC)c1O (stereo not given in full)	6.17 µM (inactive)	0.155 µM (active)	1.11 µM (active)	0.912 µM (active)	0.65 µM (active)	0.182 µM (active)	3.55 µM (inactive)	0.433 µM (active)	15.1 µM (inactive)	2.75 µM (inactive)	2.92 µM (inactive)	0.498 µM (active)	1.36 µM (inactive)	3.18 µM (inactive)	2.96 µM (inactive)		0.404 µM (active)
[O-][Cl+3]([O-])([O-])[O-].c1ccc(-c2[o+]c(-c3ccccc3)c(-c3ccccc3)c(-c3ccccc3)c2-c2ccccc2)cc1	> 100 µM (inactive)	> 100 µM (inactive)	> 100 µM (inactive)	> 100 µM (inactive)	> 100 µM (inactive)	> 100 µM (inactive)	> 100 µM (inactive)	> 100 µM (inactive)	44.7 µM (inactive)	> 100 µM (inactive)	> 100 µM (inactive)	> 100 µM (inactive)	> 100 µM (inactive)	12 µM (inactive)	> 100 µM (inactive)		
Cc1ccc(Cn2c(C)nc3c2C(=O)c2ccccc2C3=O)cc1	11.7 µM (inactive)	1.88 µM (inactive)	27.7 µM (inactive)	13.8 µM (inactive)	10.9 µM (inactive)	6.22 µM (inactive)	15.3 µM (inactive)	13.9 µM (inactive)	0.64 µM (active)	10.6 µM (inactive)	23.5 µM (inactive)		18.2 µM (inactive)	11.4 µM (inactive)	15.8 µM (inactive)	0.331 µM (active)	11.6 µM (inactive)
CC1(C)CC(/C=C2/OC(=O)c3ccccc32)=C(C#N)C(=O)O1	> 100 µM (inactive)	> 100 µM (inactive)	> 100 µM (inactive)	> 100 µM (inactive)	> 100 µM (inactive)	> 100 µM (inactive)	> 100 µM (inactive)	> 100 µM (inactive)	> 100 µM (inactive)	> 100 µM (inactive)	> 100 µM (inactive)		> 100 µM (inactive)		> 100 µM (inactive)	> 100 µM (inactive)	> 100 µM (inactive)
COc1ccc(/C(=N\NC(=O)C(N)=O)C(c2ccc(OC)cc2)C2(O)C(=O)Nc3c(Cl)cccc32)cc1 (stereo not given)	> 100 µM (inactive)	> 100 µM (inactive)	> 100 µM (inactive)		> 100 µM (inactive)	> 100 µM (inactive)	> 100 µM (inactive)	> 100 µM (inactive)	82.4 µM (inactive)	> 100 µM (inactive)	> 100 µM (inactive)	> 100 µM (inactive)	> 100 µM (inactive)	> 100 µM (inactive)	> 100 µM (inactive)		> 100 µM (inactive)
CC1=Nc2ccccc2SC(c2c(Cl)cccc2Cl)C1 (stereo not given)	1.57 µM (inactive)	0.345 µM (active)	1.52 µM (inactive)	2.45 µM (inactive)	1.61 µM (inactive)	1.71 µM (inactive)		1.91 µM (inactive)	0.49 µM (active)	0.281 µM (active)	1.36 µM (inactive)	1.82 µM (inactive)	2.12 µM (inactive)	1.34 µM (inactive)	1.58 µM (inactive)		1.38 µM (inactive)
Cc1cc(O)nc(NNC(C#N)c2ccco2)n1 (stereo not given)	> 100 µM (inactive)	> 100 µM (inactive)	> 100 µM (inactive)	> 100 µM (inactive)	> 100 µM (inactive)	> 100 µM (inactive)	> 100 µM (inactive)	37.2 µM (inactive)	> 100 µM (inactive)	> 100 µM (inactive)	> 100 µM (inactive)	> 100 µM (inactive)		> 100 µM (inactive)	> 100 µM (inactive)	> 100 µM (inactive)	
CC(=O)Oc1cc(OC(C)=O)c(OC(C)=O)c2c1CC1C(=O)C3(CCc4ccccc43)C(=O)C1C2 (stereo not given)		15.8 µM (inactive)	> 100 µM (inactive)	32.1 µM (inactive)	7.57 µM (inactive)	13.4 µM (inactive)		0.912 µM (active)		4.82 µM (inactive)	18.2 µM (inactive)	> 100 µM (inactive)	20 µM (inactive)	15 µM (inactive)	19.6 µM (inactive)		
O=C(O)CCCc1cc2c(s1)-c1cccc3cccc-2c13	22.6 µM (inactive)	25.4 µM (inactive)	50.1 µM (inactive)	19.8 µM (inactive)	28.9 µM (inactive)	22.4 µM (inactive)	20.4 µM (inactive)	50.4 µM (inactive)	24.1 µM (inactive)	19.1 µM (inactive)	34.2 µM (inactive)	17.7 µM (inactive)			20.3 µM (inactive)	23.7 µM (inactive)	27.4 µM (inactive)
Cc1ccc(CC(C)N)cc1 (stereo not given)	> 100 µM (inactive)	> 100 µM (inactive)	> 100 µM (inactive)	> 100 µM (inactive)	> 100 µM (inactive)	> 100 µM (inactive)	> 100 µM (inactive)	> 100 µM (inactive)	> 100 µM (inactive)	> 100 µM (inactive)	> 100 µM (inactive)	> 100 µM (inactive)	> 100 µM (inactive)	> 100 µM (inactive)	> 100 µM (inactive)		> 100 µM (inactive)
COc1cc(C(C#N)NNC(=O)Cc2ccccc2)cc(OC)c1OC (stereo not given)	> 100 µM (inactive)	> 100 µM (inactive)	> 100 µM (inactive)	> 100 µM (inactive)	> 100 µM (inactive)	> 100 µM (inactive)	> 100 µM (inactive)	35.5 µM (inactive)	> 100 µM (inactive)	> 100 µM (inactive)	> 100 µM (inactive)	95.3 µM (inactive)		> 100 µM (inactive)	> 100 µM (inactive)	> 100 µM (inactive)	
O=C1C=C(Nc2cc(Cl)ccc2Cl)c2ccccc2C1=O	24 µM (inactive)	25.2 µM (inactive)	19.9 µM (inactive)	51.6 µM (inactive)	19.4 µM (inactive)	26.1 µM (inactive)	15.4 µM (inactive)	25.9 µM (inactive)		23 µM (inactive)	38.6 µM (inactive)	20.4 µM (inactive)	> 100 µM (inactive)	55.5 µM (inactive)	36.1 µM (inactive)		46.2 µM (inactive)
CN(Cc1ccccc1)C1(N(C)Cc2ccccc2)CC1	> 100 µM (inactive)	> 100 µM (inactive)	> 100 µM (inactive)	> 100 µM (inactive)	> 100 µM (inactive)	> 100 µM (inactive)	> 100 µM (inactive)	> 100 µM (inactive)	> 100 µM (inactive)	> 100 µM (inactive)	> 100 µM (inactive)	> 100 µM (inactive)	> 100 µM (inactive)	> 100 µM (inactive)	> 100 µM (inactive)		> 100 µM (inactive)
COC12C=CC(CC1)c1c(O)ccc(O)c12 (stereo not given)	> 84.9 µM (inactive)	38.9 µM (inactive)	57.7 µM (inactive)	> 100 µM (inactive)	> 51.5 µM (inactive)	39.3 µM (inactive)	42.9 µM (inactive)	53.7 µM (inactive)	22.8 µM (inactive)	21.8 µM (inactive)	87.5 µM (inactive)		> 66.2 µM (inactive)	> 79.6 µM (inactive)	22.6 µM (inactive)	5.6 µM (inactive)	> 70.6 µM (inactive)
CCOC1c2cc(C(C)C)c(O)c(O)c2[C@@]23CCCC(C)(C)C2C1OC3=O (stereo not given in full)	> 100 µM (inactive)	> 100 µM (inactive)	> 100 µM (inactive)	> 100 µM (inactive)	> 100 µM (inactive)	78 µM (inactive)	> 100 µM (inactive)	47.8 µM (inactive)	50 µM (inactive)	84.5 µM (inactive)	> 100 µM (inactive)		> 100 µM (inactive)	30.3 µM (inactive)	> 100 µM (inactive)	61.4 µM (inactive)	> 100 µM (inactive)
C/C(=C(/C)c1cc[n+](C)cc1)c1cc[n+](C)cc1	> 75 µM (inactive)	> 75 µM (inactive)	> 75 µM (inactive)	> 75 µM (inactive)	> 75 µM (inactive)	> 75 µM (inactive)	> 75 µM (inactive)	> 75 µM (inactive)	> 75 µM (inactive)	9.12 µM (inactive)	> 75 µM (inactive)	> 75 µM (inactive)	> 75 µM (inactive)	> 75 µM (inactive)	27.2 µM (inactive)		> 75 µM (inactive)
